{"source": "patent US7259177B2", "about": "“Cycloalkylmethoxy-substituted acetic acid derivatives, processes for their preparation and their use as pharmaceuticals” (Sanofi-Aventis Deutschland GmbH, priority 2003, dated 2007)", "note": "Where a name gives a salt, the structure may show the parent alone.", "data": [{"biological_target": "T1, human PPARα (Homo sapiens, UniProt Q07869)", "T1 construct": "amino acids S167-Y468; expressed in transfected cells; host or cells: HEK (human embryo kidney) cells, stably transfected with pcDNA3 carrying the fusion construct", "T1 sequence (Q07869 167-468)": "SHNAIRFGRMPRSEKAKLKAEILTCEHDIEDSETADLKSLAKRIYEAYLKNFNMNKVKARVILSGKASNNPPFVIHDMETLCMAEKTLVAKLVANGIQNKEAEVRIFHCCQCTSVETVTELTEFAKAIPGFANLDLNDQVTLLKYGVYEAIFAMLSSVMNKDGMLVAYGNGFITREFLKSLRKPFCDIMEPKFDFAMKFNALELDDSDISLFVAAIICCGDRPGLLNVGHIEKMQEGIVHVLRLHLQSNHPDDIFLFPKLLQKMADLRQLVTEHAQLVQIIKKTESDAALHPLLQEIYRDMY", "assay": "Cellular PPARalpha assay (stably transfected HEK PPARalpha reporter cell line, luciferase)", "assay_type": "cell-based", "settings": "24 h incubation, luciferase readout", "method": "(A) Determination of EC50 Values of PPAR Agonists in the Cellular PPARalpha Assay\nThe potency of substances that bind to human PPARα and activate in an agonistic manner is analyzed using a stably transfected HEK cell line (HEK=human embryo kidney) which is referred to here as PPARalpha reporter cell line. It contains two genetic elements, a luciferase reporter element (pΔM-GAL4-Luc-Zeo) and a PPARalpha fusion protein (GR-GAL4-humanPPARα-LBD) that mediates expression of the luciferase reporter element depending on a PPARalpha ligand. The stably and constitutively expressed fusion protein GR-GAL4-humanPPARalpha-LBD binds in the cell nucleus of the PPARalpha reporter cell line via the GAL4 protein portion to the GAL4 DNA binding motifs 5′-upstream of the luciferase reporter element which is integrated in the genome of the cell line. There is only little expression of the luciferase reporter gene without addition of a PPARalpha ligand if fatty acid-depleted fetal calf serum (cs-FCS) is used in the assay. PPARα ligands bind and activate the PPARα fusion protein and thereby bring about expression of the luciferase reporter gene. The luciferase which is formed can be detected by means of chemiluminescence via an appropriate substrate.\nThe PPARalpha reporter cell line was prepared in 2 stages. Firstly, the luciferase reporter element was constructed and stably transfected into HEK cells. For this purpose, five binding sites of the yeast transcription factor GAL4 (each 5′-CGGAGTACTGTCCTCCGAG-3′ (SEQ ID NO:1)) were cloned in 5′-upstream of a 68 bp-long minimal MMTV promoter (Genbank Accession # V01175). The minimal MMTV promoter section contains a CCAAT box and a TATA element in order to enable efficient transcription by RNA polymerase II. The cloning and sequencing of the GAL4-MMTV construct took place in analogy to the description of Sambrook J. et. al. (Molecular cloning, Cold Spring Harbor Laboratory Press, 1989). Then the complete Photinus pyralis gene (Genbank Accession # M15077) was cloned in 3′-downstream of the GAL4-MMTV element. After sequencing, the luceriferase reporter element consisting of five GAL4 binding sites, MMTV promoter and luciferase gene was recloned into a plasmid which confers zeocin resistance in order to obtain the plasmid pΔM-GAL4-Luc-Zeo. This vector was transfected into HEK cells in accordance with the statements in Ausubel, F. M. et al. (Current protocols in molecular biology, Vol.1-3, John Wiley & Sons, Inc., 1995). […] In a second step, the PPARalpha fusion protein (GR-GAL4-humanPPARalpha-LBD) was introduced into the stable cell clone described. For this purpose, initially the cDNA coding for the N-terminal 76 amino acids of the glucocorticoid receptor (Genbank Accession # P04150) was linked to the cDNA section coding for amino acids 1-147 of the yeast transcription factor GAL4 (Genbank Accession # P04386). The cDNA of the ligand-binding domain of the human PPARalpha receptor (amino acids S167-Y468; Genbank Accession # S74349) was cloned in at the 3′-end of this GR-GAL4 construct. The fusion construct prepared in this way (GR-GAL4-humanPPARalpha-LBD) was recloned into the plasmid pcDNA3 (from Invitrogen) in order to enable constitutive expression therein by the cytomegalovirus promoter. This plasmid was linearized with a restriction endonuclease and stably transfected into the previously described cell clone containing the luciferase reporter element. The finished PPARalpha reporter cell line that contains a luciferase reporter element and constitutively expresses the PPARalpha fusion protein (GR-GAL4-human PPARalpha-LBD) was isolated by selection with zeocin (0.5 mg/ml) and G418 (0.5 mg/ml).\nThe activity of PPARalpha agonists is determined in a 3-day assay described below: […]", "units": {"EC50": "nM"}, "values": [{"molecule": "Cc1ccc(-c2nc(COC3CCCC(CN(Cc4ccccc4)[C@H](C(=O)O)C(C)C)C3)c(C)o2)cc1", "note": "(mixture of isomers) [Example 51, (S)-2-{benzyl-[cis-3-(5-methyl-2-p-tolyloxazol-4-ylmethoxy)-cyclohexylmethyl]amino}-3-methylbutyric acid trifluoroacetic acid salt]", "EC50": 12}, {"molecule": "Cc1ccc(-c2nc(CO[C@@H]3CCC[C@H](COC(Cc4ccccc4)C(=O)O)C3)c(C)o2)cc1", "note": "(relative stereo) [Example 4, 2-[cis-3-(5-methyl-2-p-tolyloxazol-4-ylmethoxy)cyclohexyl-methoxy]-3-phenylpropionic acid]", "EC50": 25}, {"molecule": "Cc1ccc(-c2nc(COC3CCCC(CN[C@H](C(=O)O)C(C)C)C3)c(C)o2)cc1", "note": "(mixture of isomers) [Example 42, (S)-3-Methyl-2{[cis-3-(5-methyl-2-p-tolyloxazol-4-ylmethoxy)cyclohexyl-methyl]amino}butyric acid]", "EC50": 79}, {"molecule": "Cc1ccc(-c2nc(CO[C@@H]3CCC[C@H](COC4(C(=O)O)CCCC4)C3)c(C)o2)cc1", "note": "(relative stereo) [Example 9, 1-[cis-3-(5-Methyl-2-p-tolyloxazol-4-ylmethoxy)cyclohexylmethoxy]cyclo-pentanecarboxylic acid]", "EC50": 4.3}, {"molecule": "Cc1ccc(-c2nc(CO[C@H]3CCC[C@@H](COC(C)(C)C(=O)O)C3)c(C)o2)cc1", "note": "[Example 8a, 2-[(1R,3S)-3-(5-Methyl-2-p-tolyloxazol-4-ylmethoxy)cyclohexylmethoxy]-2-methylpropionic Acid]", "EC50": 1.8}, {"molecule": "COc1cccc(-c2nc(CO[C@@H]3CCC[C@H](CCC(C(=O)O)C(C)C)C3)c(C)o2)c1", "note": "(relative stereo) [Example 74, 2-(2-{cis-3-[2-(3-methoxyphenyl)-5-methyloxazol-4-ylmethoxy]cyclohexyl}ethyl)-3-methylbutyric acid]", "EC50": 0.4}, {"molecule": "Cc1ccc(-c2nc(CO[C@@H]3CCC[C@H](CSCC(=O)O)C3)c(C)o2)cc1", "note": "(racemic) [Example 22]", "EC50": 0.07}, {"molecule": "CCC(SCC1CCCC(OCc2nc(-c3ccc(C)cc3)oc2C)C1)C(=O)O", "note": "(stereo not drawn) [Example 24, 2-[cis-3-(5-methyl-2-p-tolyloxazol-4-ylmethoxy)cyclohexylmethylsulfanyl]butyric acid]", "EC50": 0.3}, {"molecule": "CCc1oc(-c2ccc3ccccc3c2)nc1COC[C@@H]1CCC[C@H](COC(C)(C)C(=O)O)C1", "note": "(racemic) [Example 64, 2-[cis-3-(5-ethyl-2-(2-naphthyl)oxazol-4-yl-methoxymethyl)cyclohexylmethoxy]-2-methylpropionic acid]", "EC50": 0.4}, {"molecule": "Cc1oc(-c2ccc(C(F)(F)F)cc2)nc1COC1CCCC(COC(C)(C)C(=O)O)C1", "note": "[Example 16, 2-methyl-2-{(1R,3S)-cis-3-[5-methyl-2-(4-trifluoromethyl-phenyl)oxazol-4-ylmethoxy]cyclohexylmethoxy}propionic acid]", "EC50": 4}, {"molecule": "CCCCCC(C(=O)O)[S+]([O-])CC1CCCC(OCc2nc(-c3ccc(C)cc3)oc2C)C1", "note": "(stereo not drawn) [Example 33, 2-[cis-3-(5-methyl-2-p-tolyloxazol-4-ylmethoxy)cyclohexylmethylsulfinyl]heptanoic acid]", "EC50": 17}, {"molecule": "CCCCCC(C(=O)O)S(=O)(=O)CC1CCCC(OCc2nc(-c3ccc(C)cc3)oc2C)C1", "note": "(stereo not drawn) [Example 38, 2-[cis-3-(5-methyl-2-p-tolyloxazol-4-ylmethoxy)cyclohexylmethylsulfonyl]heptanoic acid]", "EC50": 8.5}]}]}
